Results published in ChEMBL document CHEMBL3822371, “Rapid Discovery and Structure-Activity Relationships of Pyrazolopyrimidines That Potently Suppress Breast Cancer Cell Growth via SRC Kinase Inhibition with Exceptional Selectivity over ABL Kinase” (J Med Chem, 2016).
Active and inactive are the calls of the source. The calls are words filed in the database; no cut-off is given here.

Assays:
MDA-MB-231 [1] = experiment: cells; conditions: Homo sapiens, MDA-MB-231, 120 h
[2] = target: Proto-oncogene tyrosine-protein kinase Src (Homo sapiens, UniProt P12931); experiment: biochemical; format: cell-based
Chain of Proto-oncogene tyrosine-protein kinase Src (P12931 2-536 limits assumed): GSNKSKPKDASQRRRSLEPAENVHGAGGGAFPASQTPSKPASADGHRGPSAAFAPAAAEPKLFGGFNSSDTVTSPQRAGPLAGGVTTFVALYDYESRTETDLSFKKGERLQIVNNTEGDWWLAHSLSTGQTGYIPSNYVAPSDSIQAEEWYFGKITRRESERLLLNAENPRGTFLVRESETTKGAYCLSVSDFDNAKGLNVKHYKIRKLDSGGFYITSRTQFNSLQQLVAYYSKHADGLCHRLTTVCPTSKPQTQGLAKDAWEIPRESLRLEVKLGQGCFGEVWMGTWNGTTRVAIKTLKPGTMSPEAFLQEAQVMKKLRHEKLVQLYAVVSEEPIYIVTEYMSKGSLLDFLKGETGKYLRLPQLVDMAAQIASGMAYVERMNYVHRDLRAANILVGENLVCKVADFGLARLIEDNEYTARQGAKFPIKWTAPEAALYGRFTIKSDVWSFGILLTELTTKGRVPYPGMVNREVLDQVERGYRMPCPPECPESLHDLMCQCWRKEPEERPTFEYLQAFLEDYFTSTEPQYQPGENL

[3] = target: Tyrosine-protein kinase ABL1 (Homo sapiens, UniProt P00519)
Chain of Tyrosine-protein kinase ABL1 (P00519 whole entry): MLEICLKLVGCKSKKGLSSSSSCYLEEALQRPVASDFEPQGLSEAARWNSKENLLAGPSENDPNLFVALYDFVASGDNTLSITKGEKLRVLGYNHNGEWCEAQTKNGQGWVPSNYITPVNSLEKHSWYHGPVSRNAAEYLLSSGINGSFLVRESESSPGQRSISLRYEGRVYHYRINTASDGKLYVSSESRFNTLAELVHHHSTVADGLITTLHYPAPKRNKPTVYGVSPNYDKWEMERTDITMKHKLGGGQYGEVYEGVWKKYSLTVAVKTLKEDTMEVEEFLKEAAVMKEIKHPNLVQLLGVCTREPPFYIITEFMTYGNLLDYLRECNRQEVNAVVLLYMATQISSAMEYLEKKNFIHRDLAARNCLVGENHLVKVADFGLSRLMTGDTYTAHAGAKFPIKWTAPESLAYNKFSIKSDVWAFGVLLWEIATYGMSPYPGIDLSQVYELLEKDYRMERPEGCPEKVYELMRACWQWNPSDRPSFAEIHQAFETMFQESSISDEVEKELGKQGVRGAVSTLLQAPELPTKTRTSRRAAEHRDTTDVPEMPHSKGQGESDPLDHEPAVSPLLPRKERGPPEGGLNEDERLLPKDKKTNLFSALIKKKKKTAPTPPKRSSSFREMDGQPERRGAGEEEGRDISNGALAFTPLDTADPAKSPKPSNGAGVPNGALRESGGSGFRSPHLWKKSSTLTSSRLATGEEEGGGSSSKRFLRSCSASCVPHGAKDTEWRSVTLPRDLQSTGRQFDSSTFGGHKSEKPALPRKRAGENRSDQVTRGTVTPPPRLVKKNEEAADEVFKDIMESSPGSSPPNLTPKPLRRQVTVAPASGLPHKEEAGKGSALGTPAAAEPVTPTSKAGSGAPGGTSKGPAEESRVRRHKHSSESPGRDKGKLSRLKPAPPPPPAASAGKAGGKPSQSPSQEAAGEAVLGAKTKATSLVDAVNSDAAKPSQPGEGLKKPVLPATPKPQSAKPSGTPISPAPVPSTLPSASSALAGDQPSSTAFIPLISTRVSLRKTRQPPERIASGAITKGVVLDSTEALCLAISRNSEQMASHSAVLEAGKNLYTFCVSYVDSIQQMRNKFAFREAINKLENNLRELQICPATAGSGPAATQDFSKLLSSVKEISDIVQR

MCF7 [4] = experiment: cells; conditions: Homo sapiens, MCF7, 120 h
MCF7 [5] = experiment: Antiproliferative activity against human MCF7 cells assessed as reduction in cell confluence level at […] after 5 days by microscopy based time-lapse imaging assay; format: functional
[6] = target: Serine/threonine-protein kinase mTOR (Homo sapiens, UniProt P42345); experiment: Inhibition of human mTOR using poly[Glu,Tyr]4:1 as substrate in presence of [gamma-33P]ATP
[7] = target: Proto-oncogene tyrosine-protein kinase receptor Ret (Homo sapiens, UniProt P07949); experiment: Inhibition of human RET using poly[Glu,Tyr]4:1 as substrate in presence of [gamma-33P]ATP
Chain of Proto-oncogene tyrosine-protein kinase receptor Ret (P07949 whole entry): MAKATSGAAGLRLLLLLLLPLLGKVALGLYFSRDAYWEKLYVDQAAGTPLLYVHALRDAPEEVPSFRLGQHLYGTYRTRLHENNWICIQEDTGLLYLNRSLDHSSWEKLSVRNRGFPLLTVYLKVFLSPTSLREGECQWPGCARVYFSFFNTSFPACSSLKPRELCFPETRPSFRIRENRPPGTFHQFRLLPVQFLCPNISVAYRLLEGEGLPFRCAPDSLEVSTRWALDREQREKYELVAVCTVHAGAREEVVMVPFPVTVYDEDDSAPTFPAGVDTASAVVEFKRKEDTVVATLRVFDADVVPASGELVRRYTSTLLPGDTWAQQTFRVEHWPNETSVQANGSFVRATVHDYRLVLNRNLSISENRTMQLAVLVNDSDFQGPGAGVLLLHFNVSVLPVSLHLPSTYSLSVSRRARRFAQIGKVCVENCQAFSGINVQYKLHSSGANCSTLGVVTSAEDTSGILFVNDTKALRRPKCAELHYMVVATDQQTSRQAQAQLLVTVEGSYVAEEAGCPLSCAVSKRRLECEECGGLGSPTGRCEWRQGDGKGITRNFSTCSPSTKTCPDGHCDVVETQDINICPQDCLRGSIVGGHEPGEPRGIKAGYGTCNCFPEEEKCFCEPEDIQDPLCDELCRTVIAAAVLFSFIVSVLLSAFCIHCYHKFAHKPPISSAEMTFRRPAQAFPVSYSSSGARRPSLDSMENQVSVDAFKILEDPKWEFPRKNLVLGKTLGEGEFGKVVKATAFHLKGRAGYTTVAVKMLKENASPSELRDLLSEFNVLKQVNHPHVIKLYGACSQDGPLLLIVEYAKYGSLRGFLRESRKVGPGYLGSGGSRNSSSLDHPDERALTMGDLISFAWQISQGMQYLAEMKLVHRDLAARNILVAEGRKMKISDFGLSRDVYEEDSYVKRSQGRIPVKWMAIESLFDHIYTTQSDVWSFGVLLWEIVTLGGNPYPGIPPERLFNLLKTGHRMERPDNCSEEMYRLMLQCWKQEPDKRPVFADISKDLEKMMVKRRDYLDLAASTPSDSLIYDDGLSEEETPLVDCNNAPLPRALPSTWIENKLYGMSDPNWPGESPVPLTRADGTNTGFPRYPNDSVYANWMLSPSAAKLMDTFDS

[8] = target: Platelet-derived growth factor receptor alpha (Homo sapiens, UniProt P16234); experiment: Inhibition of human PDGFRalpha using poly[Glu,Tyr]4:1 as substrate in presence of [gamma-33P]ATP
Chain of Platelet-derived growth factor receptor alpha (P16234 whole entry): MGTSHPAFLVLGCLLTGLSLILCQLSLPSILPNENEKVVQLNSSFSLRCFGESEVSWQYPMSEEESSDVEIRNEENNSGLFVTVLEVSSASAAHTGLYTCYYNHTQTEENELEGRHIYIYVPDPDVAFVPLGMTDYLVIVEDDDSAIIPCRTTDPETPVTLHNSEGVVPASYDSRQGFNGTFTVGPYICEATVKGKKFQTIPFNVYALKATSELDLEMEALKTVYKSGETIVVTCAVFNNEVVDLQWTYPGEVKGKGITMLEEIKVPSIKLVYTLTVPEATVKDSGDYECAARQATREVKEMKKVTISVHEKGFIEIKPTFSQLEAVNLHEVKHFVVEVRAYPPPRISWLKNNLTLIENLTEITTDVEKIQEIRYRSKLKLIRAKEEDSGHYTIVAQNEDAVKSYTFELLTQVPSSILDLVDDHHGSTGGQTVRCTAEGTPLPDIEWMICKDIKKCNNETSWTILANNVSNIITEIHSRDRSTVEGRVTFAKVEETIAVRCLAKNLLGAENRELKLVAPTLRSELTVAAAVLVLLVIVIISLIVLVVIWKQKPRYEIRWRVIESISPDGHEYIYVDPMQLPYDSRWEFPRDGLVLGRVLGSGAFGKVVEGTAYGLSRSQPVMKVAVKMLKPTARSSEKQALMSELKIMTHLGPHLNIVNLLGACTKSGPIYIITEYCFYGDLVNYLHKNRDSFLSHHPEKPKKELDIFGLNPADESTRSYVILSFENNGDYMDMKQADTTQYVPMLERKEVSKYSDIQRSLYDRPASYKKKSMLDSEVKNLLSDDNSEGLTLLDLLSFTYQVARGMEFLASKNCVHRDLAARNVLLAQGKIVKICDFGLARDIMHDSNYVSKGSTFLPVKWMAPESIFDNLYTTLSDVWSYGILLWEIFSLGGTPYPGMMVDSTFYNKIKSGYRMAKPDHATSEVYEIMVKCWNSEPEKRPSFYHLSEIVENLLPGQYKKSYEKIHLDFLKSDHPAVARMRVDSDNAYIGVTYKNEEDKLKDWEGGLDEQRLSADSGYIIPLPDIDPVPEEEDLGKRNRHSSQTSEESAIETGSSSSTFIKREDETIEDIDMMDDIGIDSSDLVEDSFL

[9] = target: Mast/stem cell growth factor receptor Kit (Homo sapiens, UniProt P10721); experiment: Inhibition of human KIT using poly[Glu,Tyr]4:1 as substrate in presence of [gamma-33P]ATP
Chain of Mast/stem cell growth factor receptor Kit (P10721 whole entry): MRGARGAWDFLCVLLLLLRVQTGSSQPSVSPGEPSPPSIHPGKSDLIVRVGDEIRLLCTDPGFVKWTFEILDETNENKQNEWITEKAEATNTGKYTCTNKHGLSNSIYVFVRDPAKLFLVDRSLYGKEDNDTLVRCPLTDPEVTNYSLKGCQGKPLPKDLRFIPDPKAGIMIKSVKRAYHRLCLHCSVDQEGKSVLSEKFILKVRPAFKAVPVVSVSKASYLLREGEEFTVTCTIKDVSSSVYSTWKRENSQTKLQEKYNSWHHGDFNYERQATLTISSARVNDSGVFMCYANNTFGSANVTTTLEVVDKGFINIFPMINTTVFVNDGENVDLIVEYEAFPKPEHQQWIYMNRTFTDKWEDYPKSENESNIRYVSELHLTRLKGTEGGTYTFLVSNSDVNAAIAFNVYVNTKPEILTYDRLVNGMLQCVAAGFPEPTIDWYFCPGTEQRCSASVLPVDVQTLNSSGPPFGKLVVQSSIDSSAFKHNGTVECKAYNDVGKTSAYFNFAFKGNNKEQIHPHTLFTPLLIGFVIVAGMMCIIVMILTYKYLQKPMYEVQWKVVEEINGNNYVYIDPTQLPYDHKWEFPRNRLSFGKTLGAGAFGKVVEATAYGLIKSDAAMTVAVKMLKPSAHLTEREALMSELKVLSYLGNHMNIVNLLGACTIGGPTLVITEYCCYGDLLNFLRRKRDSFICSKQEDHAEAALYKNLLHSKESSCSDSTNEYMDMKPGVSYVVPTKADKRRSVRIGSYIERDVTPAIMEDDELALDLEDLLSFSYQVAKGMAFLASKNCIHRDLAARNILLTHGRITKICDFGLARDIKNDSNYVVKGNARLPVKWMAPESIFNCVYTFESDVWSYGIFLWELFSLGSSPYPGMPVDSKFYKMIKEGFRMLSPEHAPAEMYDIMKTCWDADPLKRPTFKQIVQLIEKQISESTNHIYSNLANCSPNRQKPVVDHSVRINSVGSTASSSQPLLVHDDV

MCF7 [10] = experiment: Antiproliferative activity against human MCF7 cells assessed as cell death at […] after 48 to 120 hrs by microscopy based time-lapse imaging assay; format: functional
Danio rerio [11] = species on record: Danio rerio; experiment: Toxicity in wild-type zebrafish embryos assessed as mortality at >10 uM treated for 4 hrs measured after 48 hrs by fluorescent microscopy; format: organism-based; conditions: in vivo
[12] = Solubility of the compound in water at pH 7; format: physicochemical
Danio rerio [13] = species on record: Danio rerio; experiment: Cardiotoxicity in wild-type zebrafish embryos assessed as heart enlargement at 1 to 10 uM treated for 4 hrs measured after 48 hrs by fluorescent microscopy; format: toxicity, organism-based; conditions: in vivo
[14] = Solubility of the compound in water at pH 2.6; format: physicochemical
Danio rerio [15] = species on record: Danio rerio; experiment: Cardiotoxicity in wild-type zebrafish embryos at >10 uM treated for 4 hrs measured after 48 hrs by fluorescent microscopy; format: organism-based; conditions: in vivo
MDA-MB-231 [16] = experiment: Increase in total SRC in human MDA-MB-231 cells preincubated for 1.5 hrs followed by serum stimulation for 1 hr by Western blot analysis; format: cell-based; conditions: mda-mb-231, 1 h
[17] = Half life in nude mouse at 10 mg/kg, […] via oral gavage; format: ADME, organism-based; conditions: in vivo
[18] = Antiproliferative activity against SRC, YES and FYN deficient mouse SYF cells at 3 to 100 nM; format: cell-based; conditions: 0.1 µM

## COc1cc(-c2ccn(CCN3CCC(N(C)C)CC3)n2)ccc1NC(=O)OC(C)(C)C
MDA-MB-231 [1]
  EC50: 32.6 µM

## COc1ccc(-c2nn(CCN3CCC(N(C)C)CC3)c3ncnc(N)c23)cc1NC(=O)OC(C)(C)C
MDA-MB-231 [1]
  EC50: 28.6 µM

## CN(C)C1CCN(CCn2nc(-c3ccc(NC(=O)OC(C)(C)C)cc3)c3c(N)ncnc32)CC1
[2]
  IC50: 0.071 µM
[3]
  IC50: > 10 µM

## COc1cc(-c2nn(CCN3CCC(N(C)C)CC3)c3ncnc(N)c23)ccc1NCc1ccccn1
MDA-MB-231 [1]
  EC50: 40.2 µM

## CCOC(Cn1nc(-c2ccoc2)c2c(N)ncnc21)OCC
MCF7 [4]
  EC50: 43.1 µM

## Cc1ccc(-c2nn(CCN3CCC(CCN(C)C)CC3)c3ncnc(N)c23)cc1
MCF7 [5]
  Activity: Active
[6]
  IC50: > 10 µM
[7]
  IC50: > 10 µM
[8]
  IC50: > 10 µM
[9]
  IC50: > 10 µM

## Cc1ccc(-c2nn(CCN3CCC(CN(C)C)CC3)c3ncnc(N)c23)cc1
MCF7 [5]
  Activity: Active
[6]
  IC50: > 10 µM
[7]
  IC50: > 10 µM
[8]
  IC50: > 10 µM
[9]
  IC50: > 10 µM

## CCOC(Cn1nc(-c2ccc(OC)c(OC)c2)c2c(N)ncnc21)OCC
MCF7 [4]
  EC50: 6.1 µM

## CN(C)CC1CCN(CCn2nc(-c3cnc4[nH]ccc4c3)c3c(N)ncnc32)CC1
MCF7 [10]
  Activity: Active
[6]
  IC50: 8.57 µM
[8]
  IC50: > 10 µM
[9]
  IC50: > 10 µM

## COc1cc(-c2nn(CCN3CCC(N(C)C)CC3)c3ncnc(N)c23)ccc1NCc1cccnc1
MDA-MB-231 [1]
  EC50: 4.14 µM

## Cc1nc(Nc2ncc(C(=O)Nc3c(C)cccc3Cl)s2)cc(N2CCN(CCO)CC2)n1.O [DASATINIB]
Danio rerio [11]
  Activity: Toxic
[12]
  solubility: < 0.001 mg/mL
Danio rerio [13]
  Activity: Toxic
[14]
  solubility: 18 mg/mL
Danio rerio [15]
  Activity: Toxic
MDA-MB-231 [16]
  Activity: Dose-dependent effect
[17]
  half-life: 54 min

## COc1cc(-c2nn(CCN3CCC(CN(C)C)CC3)c3ncnc(N)c23)ccc1NC(=O)OC(C)(C)C
[18]
  Activity: Non-toxic

## CN(C)CC1CCN(CCn2nc(C#Cc3ccccc3)c3c(N)ncnc32)CC1
MCF7 [4]
  EC50: 13.5 µM

## COc1ccc(-c2nn(CCN3CCC(CN(C)C)CC3)c3ncnc(N)c23)cc1OC
MCF7 [4]
  EC50: 18.3 µM

## CN(C)C1CCN(CCn2nc(-c3ccc(NC(=O)OC(C)(C)C)nc3)c3c(N)ncnc32)CC1
MDA-MB-231 [1]
  EC50: 17.7 µM

## COc1cc(-c2nn(CCN3CCCC(N(C)C)C3)c3ncnc(N)c23)ccc1NC(=O)OC(C)(C)C (stereo unspecified)
MDA-MB-231 [1]
  EC50: 1.99 µM

## CN(C)CC1CCN(CCn2nc(-c3ccc4ncccc4c3)c3c(N)ncnc32)CC1
MCF7 [4]
  EC50: 93.6 µM

## CCOC(Cn1nc(-c2ccc(C)cc2)c2c(N)ncnc21)OCC
MCF7 [4]
  EC50: 30.9 µM
